For assay [1], the target named is T1, Cytochrome P450 2A5 (Mus musculus, UniProt P20852).
T1 sequence (P20852 whole entry): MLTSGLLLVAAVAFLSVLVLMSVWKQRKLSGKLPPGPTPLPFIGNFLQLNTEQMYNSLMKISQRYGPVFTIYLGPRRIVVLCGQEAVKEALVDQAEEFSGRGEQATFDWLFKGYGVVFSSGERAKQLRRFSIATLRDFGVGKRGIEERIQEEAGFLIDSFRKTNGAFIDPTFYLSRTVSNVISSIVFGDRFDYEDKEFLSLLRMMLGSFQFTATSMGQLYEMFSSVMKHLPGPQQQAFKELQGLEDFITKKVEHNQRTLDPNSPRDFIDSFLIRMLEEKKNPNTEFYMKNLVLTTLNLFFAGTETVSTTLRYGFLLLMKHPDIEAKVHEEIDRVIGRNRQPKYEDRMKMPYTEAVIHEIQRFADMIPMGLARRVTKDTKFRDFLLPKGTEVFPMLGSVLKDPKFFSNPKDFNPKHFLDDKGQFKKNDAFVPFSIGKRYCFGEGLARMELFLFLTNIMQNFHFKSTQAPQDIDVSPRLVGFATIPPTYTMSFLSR
The assay is described as follows: Inhibition of mouse CYP2A5.

Assay [2] deals with T2, Cytochrome P450 2A6 (Homo sapiens, UniProt P11509).
T2 sequence (P11509 whole entry): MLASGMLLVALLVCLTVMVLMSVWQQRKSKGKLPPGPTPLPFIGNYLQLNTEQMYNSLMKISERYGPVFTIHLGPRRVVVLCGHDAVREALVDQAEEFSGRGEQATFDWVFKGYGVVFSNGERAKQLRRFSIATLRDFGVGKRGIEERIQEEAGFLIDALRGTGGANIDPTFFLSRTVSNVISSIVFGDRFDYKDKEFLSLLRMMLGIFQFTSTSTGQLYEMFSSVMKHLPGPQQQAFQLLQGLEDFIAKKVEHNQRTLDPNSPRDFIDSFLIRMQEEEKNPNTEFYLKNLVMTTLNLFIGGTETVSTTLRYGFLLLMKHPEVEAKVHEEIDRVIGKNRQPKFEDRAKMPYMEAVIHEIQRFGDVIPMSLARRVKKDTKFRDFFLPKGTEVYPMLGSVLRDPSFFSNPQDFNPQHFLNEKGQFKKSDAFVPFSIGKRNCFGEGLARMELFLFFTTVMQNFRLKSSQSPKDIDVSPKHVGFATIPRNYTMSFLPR
Kind of assay: Inhibition of human CYP2A6.

The structures appear in SMILES notation.

The term IC50 denotes the concentration that gives 50% inhibition. A low value points to greater potency. As for `Clc1ccc(-c2ccccc2)cc1`, inhibition in assay [1] was half-maximal at 13 µM (IC50).
Same read-out and setting: the result for `CN1C(=O)CCC1c1cccnc1` (centres undefined) reads 1500 µM.
For the compound `CN1CCC[C@H]1c1cccnc1` [NICOTINE], the IC50 in assay [2] is 579 µM; in assay [1], 160 µM.
